This assay deals with Genome polyprotein (Hepatitis C virus genotype 1b (isolate Taiwan), UniProt P29846). Description: Fluorescence Resonant Energy Transfer (FRET) Helicase Assay. The conditions noted are these: pH 7; 22 °C. On the procedure: The enzyme was assayed the DNA helicase activity by using DNA substrate (annealed BHQ1-labeled release strand and FITC-labeled template strand) in the presence of test compound. The substrate was monitored by the fluorescence quenching of FITC. The assay mixture was added to a 384-well microplate and monitored continuously at an excitation of 485 nm and an emission of 518 nm using a Fluoroskan Ascent microplate fluorescence reader (LabSystems, VA). The original data were normalized by the formula of relative helicase activity (%). When the inhibition of helicase activity was more than 50% at a concentration of 100 uM, the IC50 values were determined by curve fitting using SigmaPlot2000 of logistic with three parameters.

Data on 1 compound can be found in BindingDB's records for doi:10.1021/jm8011905 (National Taiwan University, 2009).

Sequence of Genome polyprotein (P29846 1027-1657 limits assumed): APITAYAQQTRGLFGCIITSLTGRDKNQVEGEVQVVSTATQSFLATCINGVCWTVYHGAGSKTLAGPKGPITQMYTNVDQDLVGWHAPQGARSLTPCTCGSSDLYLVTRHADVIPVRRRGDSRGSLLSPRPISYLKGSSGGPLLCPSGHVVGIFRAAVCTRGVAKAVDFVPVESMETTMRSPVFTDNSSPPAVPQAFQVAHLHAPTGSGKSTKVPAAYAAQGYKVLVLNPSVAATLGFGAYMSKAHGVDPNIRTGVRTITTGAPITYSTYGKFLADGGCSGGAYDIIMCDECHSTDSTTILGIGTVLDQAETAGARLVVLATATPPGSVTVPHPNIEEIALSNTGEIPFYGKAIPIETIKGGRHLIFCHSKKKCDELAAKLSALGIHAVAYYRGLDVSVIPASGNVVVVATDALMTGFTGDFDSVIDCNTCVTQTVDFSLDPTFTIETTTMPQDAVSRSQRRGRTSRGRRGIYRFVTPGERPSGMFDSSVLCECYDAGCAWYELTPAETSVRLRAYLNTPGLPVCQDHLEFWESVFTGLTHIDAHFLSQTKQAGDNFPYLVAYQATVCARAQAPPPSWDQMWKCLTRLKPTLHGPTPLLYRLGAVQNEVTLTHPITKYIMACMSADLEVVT

Usually IC50 stands for the midpoint of a concentration-inhibition curve. A high value points to weaker potency. Turning to `O=S(=O)(O)c1ccc(Nc2ccc([C+](c3ccc(Nc4cccc(S(=O)(=O)O)c4)cc3)c3ccc(Nc4cccc(S(=O)(=O)O)c4)cc3)cc2)cc1` [BHT, 1], the IC50 turned out to be 40 µM.
